Experimental findings from patent publication US6706755B2, “Cyclopentane heptan(ene) acyl sulfonamide, 2-alkyl or 2-arylalkyl, or 2-heteroarylalkenyl derivatives as therapeutic agents” (Allergan, Inc., priority 2001, dated 2004) are described below.

The test system of the experiment is Dogs. Nature of the experiment: Effect on dog intraocular pressure, applanation pneumatonometry. It counts as in vivo. The settings on record: for time (Hr) of IOP max % decrease / time (Hr) of IOP max mmHg / IOP max mmHg / IOP max % decrease: 25 μl to the ocular surface, concentration 0.03%; for IOP max mmHg / IOP max % decrease: at the time of maximum given in the cell; for IOP max % decrease: vehicle 0.1% polysorbate 80 and 10 mM TRIS base; for ocular hypotensive effect in dogs: topical ocular administration, result in words. The method, then:
The compounds were prepared at the said concentrations in a vehicle comprising 0.1% polysorbate 80 and 10 mM TRIS base. Dogs were treated by administering 25 μl to the ocular surface, the contralateral eye received vehicle as a control. Intraocular pressure was measured by applanation pneumatonometry. […]

Molecules are shown by their SMILES.

Take `Cc1cc(CC[C@H](O)/C=C/[C@@H]2[C@@H](C/C=C\CCCC(=O)NS(C)(=O)=O)[C@@H](O)C[C@H]2O)sc1Br` [Compound 9a, N-((Z)-7-{(1R,2R,3R,5S)-2-[(S)-(E)-5-(5-Bromo-4-methylthiophen-2-yl)-3-hydroxypent-1-enyl]-3,5-dihydroxycyclopentyl}hept-5-enoyl)methanesulfonamide]: the “time (Hr) of IOP max % decrease” value is 72 h, the “time (Hr) of IOP max mmHg” value is 72 h, the “IOP max mmHg” value is listed as −2.8 mmHg and the “IOP max % decrease” value is listed as −13.6%. The “ocular hypotensive effect in dogs” value is reported as “pronounced ocular hypotensive effect”.
In the case of `Cc1sc(CC[C@H](O)/C=C/[C@@H]2[C@@H](C/C=C\CCCC(=O)NS(C)(=O)=O)[C@@H](O)C[C@H]2O)cc1Cl` [Compound 9b, N-((Z)-7-{(1R,2R,3R,5S)-2-[(S)-(E)-5-(4-Chloro-5-methylthiophen-2-yl)-3-hydroxypent-1-enyl]-3,5-dihydroxycyclopentyl}hept-5-enoyl)methanesulfonamide], the “time (Hr) of IOP max % decrease” value is 96 h, the “time (Hr) of IOP max mmHg” value was found to be 96 h, the “IOP max mmHg” value is listed as −4.9 mmHg and the “IOP max % decrease” value is −26.5%. Also, the “ocular hypotensive effect in dogs” value is listed as “pronounced ocular hypotensive effect”.
Consider `CS(=O)(=O)NC(=O)CCC/C=C\C[C@@H]1[C@@H](/C=C/[C@@H](O)CCc2ccc(Cl)s2)[C@H](O)C[C@@H]1O` [Compound 9c], for which the “time (Hr) of IOP max % decrease” value was 102 h, the “time (Hr) of IOP max mmHg” value amounted to 102 h, the “IOP max mmHg” value was −4.2 mmHg and the “IOP max % decrease” value is recorded as −23.8%. The “ocular hypotensive effect in dogs” value is on record as “pronounced ocular hypotensive effect”.
Regarding `CS(=O)(=O)NC(=O)CCC/C=C\C[C@@H]1[C@@H](/C=C/[C@@H](O)CCc2ccc(Br)s2)[C@H](O)C[C@@H]1O` [Compound 9e], the “time (Hr) of IOP max % decrease” value was determined as 100 h, the “time (Hr) of IOP max mmHg” value came out at 100 h, the “IOP max mmHg” value is −2.0 mmHg and the “IOP max % decrease” value is recorded as −11.7%. The “ocular hypotensive effect in dogs” value is “pronounced ocular hypotensive effect”.
As to `CCS(=O)(=O)NC(=O)CCC/C=C\C[C@@H]1[C@@H](/C=C/[C@@H](O)CCc2cc(C)c(Br)s2)[C@H](O)C[C@@H]1O` [Compound 10a, Ethanesulfonic acid ((Z)-7-{(1R,2R,3R,5S)-2-[(S)-(E)-5-(5-bromo-4-methylthiophen-2-yl)-3-hydroxypent-1-enyl]-3,5-dihydroxycyclopentyl}hept-5-enoyl)amide], the “time (Hr) of IOP max % decrease” value worked out at 4 h, the “time (Hr) of IOP max mmHg” value is 4 h, the “IOP max mmHg” value was −5.1 mmHg and the “IOP max % decrease” value is reported as −24.9%. The “ocular hypotensive effect in dogs” value was “pronounced ocular hypotensive effect”.
Take `Cc1cc(CC[C@H](O)/C=C/[C@@H]2[C@@H](C/C=C\CCCC(=O)N(COC(=O)C(C)(C)C)S(C)(=O)=O)[C@@H](O)C[C@H]2O)sc1Br` [Compound 18a]: the “time (Hr) of IOP max % decrease” value worked out at 24 h, the “time (Hr) of IOP max mmHg” value is 24 h, the “IOP max mmHg” value is given as −3.9 mmHg and the “IOP max % decrease” value is −22.0%. In addition, the “ocular hypotensive effect in dogs” value was “pronounced ocular hypotensive effect”.
On to `Cc1sc(CC[C@H](O)/C=C/[C@@H]2[C@@H](C/C=C\CCCC(=O)NS(=O)(=O)c3ccccc3)[C@@H](O)C[C@H]2O)cc1Cl` [Compound 19b], for which the “time (Hr) of IOP max % decrease” value is 74 h, the “time (Hr) of IOP max mmHg” value was 74 h, the “IOP max mmHg” value is −2.6 mmHg and the “IOP max % decrease” value is listed as −13.0%. For the same compound, the “ocular hypotensive effect in dogs” value is “pronounced ocular hypotensive effect”.
